In article PMC8537711, “Mechanistic Insights into Binding of Ligands with Thiazolidinedione Warhead to Human Histone Deacetylase 4” (Pharmaceuticals, 2021):

Key:
cdHDAC4wt [1] = molecular target: T1, cdHDAC4wt (Homo sapiens, UniProt P56524); experiment: Reversibility assay via rapid dilution; residence time from reversibility data; assay type: biochemical; conditions: first order dissociation assumed; read-out: RT (RD), residence time from rapid dilution
T1 construct: consists of 410 amino acids (human HDAC4 T648-T1057) and has a molecular weight of 44.2 kDa; His6-SUMO (cleaved yes); made in house; host or cells: E. coli (BL21) DE3 pLysS, pET14b vector
Protocol: Rapid dilution was performed by diluting the incubated mixture 100-fold with substrate (Boc-Lys{TFA}-7-Amino-4-methylcoumarin (Bachem, Bubendorf, Switzerland)) with the final substrate concentration being 20 µM. […] A positive control without TZD ligand and a blank without enzyme and TZD ligand were also carried out. […] Once again the final substrate concentration was 20 µM. […] The deacetylated substrate was converted into a fluorescent product by the addition of 0.4 mg/mL trypsin (AppliChem, Darmstadt, Germany). The release of fluorogenic substrate was followed in a microplate reader (PherStar Plus, BMG Labtech, Ortenberg, Germany) at 450 nm (λEx = 350 nm) and correlated the positive control. […] All incubations steps were performed for 60 min at 30 °C and 450 rpm. The substrate was preheated to 30 °C before the rapid dilution step.
The reciprocal values for k equals the residence time of the respective TZD ligand (residence time = koff^−1), which can be compared with the residence times gained from association data.

cdHDAC4wt [2] = molecular target: T1, cdHDAC4wt; experiment: Michaelis Menten kinetics for mode of action; assay type: biochemical; conditions: increasing Km, essentially unchanged vmax with increasing compound concentration
Protocol: For E677A, F812A, C813S, F871A and H976Y (GoF) 5 nM enzyme were used. […] Signal was developed for 30 min at room temperature and the fluorescence was measured at 450 nm (λEx = 350 nm) in a PherStar Plus (BMG Labtech, Ortenberg, Germany) fluorescence plate reader. […] Afterwards, the product concentration was plotted against the time and v0 (µM/min) was calculated from the resulting slopes. Now the initial velocity was plotted against the substrate concentration and Km was calculated using a Michaelis Menten-Fit in GraphPad Prism. The value of vmax is neglected because enzyme concentration and purity are too inconsistent between the mutant variant to calculate this value appropriate.

cdHDAC4wt [3] = molecular target: T1, cdHDAC4wt; experiment: Association kinetics (semi continuous enzyme activity assay, kobs vs inhibitor concentration); assay type: biochemical; conditions: for residence time: 1/koff (two step) or 1/k−3 (one step), read-out: RT (KF), residence time from kinetic fit; for forward isomerization rate constant (k2) / koff / kon: two step model; for forward isomerization rate constant (k2) / koff: isomerization rate; for koff: y-axis intercept; for Ki: two step induced fit model, read-out: K1 (equilibrium constant of initial encounter complex)
Protocol: A serial dilution of inhibitor beginning at 10-fold of respective IC50-value in assay buffer (25 mM Tris-HCl, pH 8.0, 75 mM KCl, 0.001% Pluronic F-127) was made in a black 96-well microtiter half-area plate (Greiner, Kremsmuenster, Austria). The dilutions were added to 3 nM cdHDAC4wt. Shortly after, the reaction was initiated by adding 20 µM Boc-Lys{TFA}-7-Amino-4-methylcoumarin (Bachem, Bubendorf, Switzerland) as substrate. […] Finally 0.4 mg/mL trypsin was added to split the deacetylated substrate in the fluorescent product which was measured at 450 nm (λEx = 350 nm) (PherStar Plus, BMG Labtech, Ortenberg, Germany). […] The standardized RFUs were plotted against the incubation time. […] Due to this knowledge the data were fitted via non linear regression with GraphPad Prism program to the following equation by Copeland [27]:(2) Y=νs·t+νi−νs/kobs·(1−e^(−kobs·t))+d where vi is the initial slope, vs is the second lower slope, kobs is the respective rate constant, t is time and d the correction for possible data offset.
Afterwards kobs values were plotted against their respective inhibitor concentration.

[4] = molecular target: T2, cdHDAC4wt (catalytic domain of human wild type histone deacetylase 4) (Homo sapiens, UniProt P56524); experiment: IC50 determination, enzyme activity assay with Boc-Lys{TFA}-AMC; assay type: biochemical; conditions: mean ± SD, N = 3
T2 construct: consists of 410 amino acids (human HDAC4 T648-T1057) and has a molecular weight of 44.2 kDa; His6-SUMO (cleaved yes); made in house; host or cells: E. coli (BL21) DE3 pLysS, pET14b vector
Protocol: Afterwards the enzymatic reaction was initiated by the addition of 20 µM Boc-Lys{TFA}-7-Amino-4-methylcoumarin (Bachem, Bubendorf, Switzerland) as substrate. […] The deacetylated substrate was converted into a fluorescent product by the addition of 0.4 mg/mL trypsin (AppliChem, Darmstadt, Germany). The release of fluorogenic substrate was followed in a microplate reader (PherStar Plus, BMG Labtech, Ortenberg, Germany) at 450 nm (λEx = 350 nm) and correlated to enzyme activity.
All incubations steps were performed for 60 min at 30 °C and 450 rpm.

cdHDAC4 mutant variants = experiment: Mutational study: Ki (Cheng-Prusoff from IC50) against cdHDAC4 mutant variants relative to wild type; assay type: biochemical, human; conditions: exchange of S758, D759, E764, T808, F812, F871 and L943
Protocol: To gain an thorough knowledge of the most involved amino acids necessary for molecular recognition of TZD ligands to cdHDAC4wt, a comprehensive mutational study was designed. Amino acids flanking the active site binding pocket in the closed (Figure 5A) and open (Figure 5B) conformation of the enzyme were systematically exchanged and IC50-values of a subset of 25 TZDs were determined against every mutant variant. Because IC50-values depends on the substrate concentration and the Km of the substrate, the Michaelis Menten parameters were determined first using substrate tert-butyl N-[(2S)-1-[(4-methyl-2-oxochromen-7-yl)amino]-1-oxo-6-[(2,2,2-trifluoroacetyl)amino]hexan-2-yl]carbamate (Boc-Lys{TFA}-AMC) in a semi continuous enzyme activity assay (Figure 5C and Figure S1). IC50-values were transformed into binding constant Ki using the Cheng-Prusoff equation to enable a fair comparison of ligand affinities to the respective HDAC4 variant:(1) IC50=(1+[S]/Km)×Ki
A serial dilution of TZD in assay buffer (25 mM TRIS-HCl, 75 mM KCl, 0.001% Pluronic F-127, pH 8.0) was incubated with 1 nM cdHDAC4wt in a black 96-well microtiter plate (Greiner). […] The release of fluorogenic substrate was followed in a microplate reader (PherStar Plus, BMG Labtech, Ortenberg, Germany) at 450 nm (λEx = 350 nm) and correlated to enzyme activity. […]

T2 sequence (P56524 648-1057): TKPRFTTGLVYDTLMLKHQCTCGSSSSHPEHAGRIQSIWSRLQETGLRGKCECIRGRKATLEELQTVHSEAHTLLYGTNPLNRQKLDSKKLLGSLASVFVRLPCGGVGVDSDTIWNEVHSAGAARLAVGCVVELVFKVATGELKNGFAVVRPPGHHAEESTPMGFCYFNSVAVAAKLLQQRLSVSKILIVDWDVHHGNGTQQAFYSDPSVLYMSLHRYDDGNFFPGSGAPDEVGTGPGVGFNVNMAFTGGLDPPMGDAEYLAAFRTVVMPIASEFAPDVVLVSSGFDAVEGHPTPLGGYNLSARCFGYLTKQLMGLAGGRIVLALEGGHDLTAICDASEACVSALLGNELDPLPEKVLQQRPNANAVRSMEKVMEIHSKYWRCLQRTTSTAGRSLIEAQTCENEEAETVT
T1 sequence (P56524 648-1057): as above

Compound	residence time (cdHDAC4wt [1]) [min]	mode of inhibition (cdHDAC4wt [2])	residence time (cdHDAC4wt [3]) [min]	y-intercept of kobs plot (k−3) (cdHDAC4wt [3]; linear regression, one step model)	k3 (cdHDAC4wt [3]; one step model, slope of kobs vs ligand concentration) [M⁻¹ s⁻¹]	k−3 (cdHDAC4wt [3]; one step model, y-intercept)	forward isomerization rate constant (k2) (cdHDAC4wt [3]) [s⁻¹]	koff (cdHDAC4wt [3]) [s⁻¹]	Ki (cdHDAC4wt [3]) [nM]	IC50 [4] [nM]	kon (cdHDAC4wt [3])	log10Ki ratio (Ki mutant / Ki wildtype) (cdHDAC4 mutant variants)
O=C(COc1ccc(/C=C2\SC(=O)NC2=O)cn1)Nc1nc2ccccc2s1 [5w]	12 ± 3	competitive inhibitor	19 ± 7	(8 ± 3) × 10^−4 s^−1	1900 ± 100	0.08 ± 0.03 s^−1 (×10^−2)	–	–	–	–	–	–
O=C1NC(=O)/C(=C/c2ccc3cc(OCC(=O)N4N=C(c5ccccc5)CC4c4ccco4)ccc3c2)S1 (stereo not shown) [8c]	12 ± 1	–	12 ± 6	–	–	–	0.0021 ± 0.0009	0.0014 ± 0.0007	–	1200 ± 100	(2.1 ± 0.9) × 10^−3 s^−1	–
O=C1NC(=O)/C(=C/c2ccc3cc(OCC(=O)N4N=C(c5ccc(F)cc5)CC4c4ccco4)ccc3c2)S1 (stereo not shown) [16c]	21 ± 7	–	–	–	–	–	0.0035 ± 0.0018	–	–	1400 ± 200	–	–
CC(/C=C/C(=O)NO)=C\[C@@H](C)C(=O)c1ccc(N(C)C)cc1 [TSA, Trichostatin A]	–	–	–	–	–	–	–	–	–	–	–	above 1

Continued, in another order:

residence time (cdHDAC4wt [1]) [min]	mode of inhibition (cdHDAC4wt [2])	residence time (cdHDAC4wt [3]) [min]	y-intercept of kobs plot (k−3) (cdHDAC4wt [3]; linear regression, one step model)	k3 (cdHDAC4wt [3]; one step model, slope of kobs vs ligand concentration) [M⁻¹ s⁻¹]	k−3 (cdHDAC4wt [3]; one step model, y-intercept)	forward isomerization rate constant (k2) (cdHDAC4wt [3]) [s⁻¹]	koff (cdHDAC4wt [3]) [s⁻¹]	Ki (cdHDAC4wt [3]) [nM]	IC50 [4] [nM]	kon (cdHDAC4wt [3])	Compound	log10Ki ratio (Ki mutant / Ki wildtype) (cdHDAC4 mutant variants)
29 ± 3	–	11 ± 3	–	–	–	0.003 ± 0.0006	0.0015 ± 0.0004	650 ± 470	330 ± 20	–	O=C1NC(=O)/C(=C/c2ccc3cc(OCC(=O)N4N=C(c5ccccc5)CC4c4ccccc4F)ccc3c2)S1 (stereo not shown) [8b]	–
18 ± 7	–	10 ± 2	–	–	–	0.0038 ± 0.0007	0.0016 ± 0.0003	3000 ± 2000	760 ± 80	–	Cc1ccc(C2CC(c3ccccc3)=NN2C(=O)COc2ccc3cc(/C=C4\SC(=O)NC4=O)ccc3c2)cc1 (stereo not shown) [8g]	–
13 ± 8	–	14 ± 4	–	–	–	0.0054 ± 0.0005	0.0012 ± 0.0003	650 ± 310	340 ± 40	(5.4 ± 0.5) × 10^−3 s^−1	O=C1NC(=O)/C(=C/c2ccc3cc(OCC(=O)N4N=C(c5ccccc5)CC4c4cccs4)ccc3c2)S1 (stereo not shown) [8i]	–
11 ± 5	–	9 ± 3	–	–	–	0.0031 ± 0.0007	0.0018 ± 0.0005	–	830 ± 20	–	O=C1NC(=O)/C(=C/c2ccc(OCC(=O)N3N=C(c4ccc(F)cc4)CC3c3ccc(Cl)c(Cl)c3)cc2)S1 (stereo not shown) [12j]	–
15 ± 2	–	–	–	–	–	0.0051 ± 0.0011	–	–	460 ± 60	–	Cc1ccc(C2CC(c3ccc(F)cc3)=NN2C(=O)COc2ccc3cc(/C=C4\SC(=O)NC4=O)ccc3c2)cc1 (stereo not shown) [16g]	–
